“Also recorded” adds a separate entry of the source.
Columns and labels:
[1] = tested on: human neuroblastoma SK-N-BE(2)-C xenograft; test: Neuroblastoma xenograft efficacy study; assay type: in vivo; details: E6R 50 mg/kg, SAHA 20 mg/kg
Protocol: Xenografts studies were performed at the TRACE PDX platform of the Leuven Cancer Institute (LKI) at KU Leuven-UZ Leuven. Treatment experiments included 24 NMRI-Foxlnu nude mice (Taconic) implanted with human neuroblastoma cell line SK-N-BE(2)-C(2 million cells/implant/mouse). Cells, tested for a full panel of murine pathogens (Impact profile I, IDEXX) prior to engraftment, were resuspended in 50% matrigel solution in PBS for injection in the mouse right flank. When tumors reached a volume of approximately 200 mm^3, mice were randomly assigned to vehicle (34% DMSO, 55% saline 0.9%, 5% ethanol, 5% kolliphor, 1% NaOH 1 M), E6R (50 mg/kg), or SAHA (20 mg/kg) treatment groups. Treatments were administered daily intraperitoneally for 10 days or until reaching human endpoint (i.e. tumor volume >1,500 mm^3). Tumors were measured daily with digital calipers, and volume was estimated as V=L×W×H×(π/6) (L: length; W: width; H: height). […] All data were analyzed using GraphPad Prism 8. Comparisons between the vehicle and treated groups were tested for statistical significance using […].

[2] = target: T1, PAH2 domain of yeast Sin3 (Saccharomyces cerevisiae, UniProt P22579); test: Ligand-detected NMR (DLB, STD, CPMG-R2), yeast Sin3 PAH2; assay type: binding, S. cerevisiae; details: 300 μM compound, 10 μM protein
T1 construct: Residues 402-473 of S. cerevisiae Sin3 (PAH2 domain) were inserted into pET28PP, pMALC2XE, and pGEX6P2; made in house; host or cells: E. coli BL21 (DE3)
T1 sequence (P22579 402-473): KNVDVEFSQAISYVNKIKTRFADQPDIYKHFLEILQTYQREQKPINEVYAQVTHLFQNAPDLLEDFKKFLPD
Protocol: Ligand-detected NMR experiments: all results were acquired using a 3 mm tube at 25° C. on a Bruker 600 MHz Avance II system equipped with a CPPTCI cryoprobe (Bruker BioSpin Corp.). In all experiments, the concentration of E6R was fixed at 300 μM (from a stock of 25 mM in deuterated DMSO) and the concentration of the protein at 10 μM. The volume of deuterated DMSO was kept constant (1.5%) in all tested samples. Right before the experiments, the compound and protein were diluted in 1×PBS containing 0.1% deuterated dithiothreitol (DTT) to a total volume of 200 μL. Samples were diluted by 5% with D2O for magnetic field lock. Spectra were acquired for ligand only, protein only, and ligand+protein. […] STD experiments [Mayer et al 2001] were acquired with 160 scans, with protein irradiation applied for 3 s at 0 ppm and −20 ppm for the on and off resonance experiments, respectively. On and off resonance spectra were collected and stored separately. One-dimensional CPMG-R2 edited experiments [Hajduk et al 1997] were collected for samples with and without proteins using seven CPMG delays (0, 25, 50, 100, 300, 500, and 800 ms) with four scans per delay. Proton spectra used to measure DLB and chemical shift perturbations in the absence and presence of the proteins were recorded with 16 scans using a recycle delay of 3 s. […]

[3] = tested on: HDAC class I and II enzymes (live yeast cells, HeLa nuclear extract, semi-purified human HDAC1); test: HDAC-Glo I/II luminescence HDAC enzymatic assay; assay type: biochemical, S. cerevisiae; human; details: three HDAC sources
Protocol: The HDAC-Glo I/II screening system (Promega, cat #G6430) was adapted to measure the effect of compounds on the enzymatic activity of human and yeast HDAC sources. […] FLAG-HDAC1 was eluted from anti-FLAG beads before running the assay, using a FLAG peptide. Nuclear extracts from human HeLa cells were provided in the assay kit. HDAC enzymatic activity was measured following the manufacturer's protocol. Briefly, linear ranges of the assay were determined by measuring luminescence signals, in a serial dilution manner, for semi-purified human HDAC1, or live yeast cells, diluted in the HDAC-Glo I/II buffer. For HeLa nuclear extracts, the manufacturer provided this information in the assay kit. For the different HDAC sources, dilution factors corresponding to signals in the linear ranges were used. To test the effect of compounds (three or four replicates) on HDAC enzymatic activity, equal volumes of HDAC sources (5 μL), and inhibitors (5 μL) were added to the different wells of a white, flat bottom 384-well plate. The plate was then briefly centrifuged with a tabletop centrifuge, and gently shaken for 1 min at 700 rpm. The plate was tightly sealed to prevent evaporation, and incubated at room temperature for 1 h. […] Luminescence signals were measured using a TriStar luminometer from Berthold Technologies, with 1 s integration time per sample. […]

[4] = tested on: cycloheximide (CYH) sensitivity; test: Yeast cycloheximide sensitivity at 37° C.; assay type: cell-based, S. cerevisiae
Protocol: For assessment of cycloheximide (CYH) sensitivity at 37° C., yeast cells with the cyh2^R genotype (FIG. 29) were first transformed with an empty pDEST-AD-TRP1-CYH2 plasmid (FIG. 30) before running the different experiments. Selection of the plasmid was maintained by culturing cells in SC-W medium.

[5] = tested on: full-length G. princeps luciferase; test: GPCA control with full-length luciferase; assay type: cell-based, Gaussia princeps; details: 16 h
Protocol: The ability of compounds to inhibit binary PPIs in the Sin3/Rpd3L HDAC complex was tested by GPCA in a high-throughput screening format. Interactions identified in the mapping at 1.0% […]2 detection cutoff were reconstituted by expressing protein pairs in the exact same orientations. […] HEK293T cells were transfected with 100 ng of each GPCA plasmid expressing either protein X, or protein Y, as described above. […] The luminescence signal for each PPI was measured by averaging the different DMSO replicates, and calculating the standard deviation of DMSO values for each interaction. For each PPI, an individual data point for every compound tested was obtained and this value was compared to the averaged DMSO value. For each interaction, a particular compound was scored as a PPI inhibitor when it decreased its luminescence signal by at least three standard deviations compared to the corresponding averaged DMSO value. […] 50 μL/well of the Renilla luciferase substrate (Renilla Luciferase Assay system, cat #E2820, Promega) were then added and luminescence was read approximately two minutes after injection using a Centro XS^3 LB960 plate reader (3 s integration). For each plate, signal was measured twice and the first measurement was used for calculations. Results were normalized by averaging raw luminescence values from DMSO wells and dividing each data point by this averaged value.

## C[C@@H](NC(=O)c1c(O)n2ccccc2nc1=O)c1ccccc1 [E6R, 4-hydroxy-2-oxo-N—((R)-1-phenylethyl)-3,4-dihydro-2H-pyrido[, 2-a]pyrimidine-3-carboxamide]
[1]; daily
  tolerability and body weight of xenografted mice: did not affect mice weight; also recorded: well-tolerated
[1]; daily intraperitoneally 10 days
  growth of neuroblastoma tumors compared to vehicle: significantly reduced the growth
[2]
  binding to yeast Sin3 PAH2 by NMR: Sin3 PAH2 binder; also recorded: bound state

## CC(/C=C/C(=O)NO)=C\[C@@H](C)C(=O)c1ccc(N(C)C)cc1 [TSA, trichostatin A]
[3]
  inhibition of HDAC enzymatic activity: systematically reduced HDAC activity
[4]
  CYH sensitivity: induced

## CC(NC(=O)c1c(O)n2ccccc2nc1=O)c1ccccc1 (racemic) [E6]
[5]
  effect on full-length G. princeps luciferase: does not perturb
